Reference: PubChem BioAssay (NCI)
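96-well plates; 48 h exposure; 5 concentrations. Endpoints by linear interpolation between flanking doses. Not reached: highest tested concentration assigned. TGI is the concentration that stops growth completely.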

Assays:
Assay in all cases: NCI anticancer screen, dose series, 48 h
SW-620 colon = system: SW-620 colon
PC-3 prostate = system: PC-3 prostate
HOP-62 NSCLC = system: HOP-62 NSCLC
SN12C renal = system: SN12C renal
MCF7 breast = system: MCF7 breast
MDA-MB-231 breast = system: MDA-MB-231 breast
HT29 colon = system: HT29 colon
A498 renal = system: A498 renal
NCI-H226 lung = system: NCI-H226 lung
OVCAR-8 ovarian = system: OVCAR-8 ovarian

Nc1nc(Cl)cc(NCC2(CO)CCC(CCc3ccccc3)C2)n1 (stereo not given)
TGI (SW-620 colon): 36 µM
TGI (PC-3 prostate): 43.4 µM
TGI (HOP-62 NSCLC): 23.1 µM
TGI (SN12C renal): 31.1 µM
TGI (MCF7 breast): 32.7 µM
TGI (MDA-MB-231 breast): 33.6 µM
TGI (HT29 colon): 21.4 µM
TGI (A498 renal): 26.8 µM
TGI (NCI-H226 lung): 36.1 µM
TGI (OVCAR-8 ovarian): 44 µM

C=CCNC(=S)N=Nc1c(O)[nH]c2ccc([N+](=O)[O-])cc12
TGI (SW-620 colon): > 100 µM
TGI (PC-3 prostate): > 100 µM
TGI (HOP-62 NSCLC): > 100 µM
TGI (SN12C renal): > 100 µM
TGI (MCF7 breast): > 100 µM
TGI (MDA-MB-231 breast): > 100 µM
TGI (HT29 colon): > 100 µM
TGI (A498 renal): 91.7 µM
TGI (NCI-H226 lung): > 100 µM
TGI (OVCAR-8 ovarian): > 100 µM

Oc1[nH]c2ccc(Br)cc2c1N=NC(=S)Nc1ccc(F)cc1
TGI (SW-620 colon): 40.2 µM
TGI (PC-3 prostate): 39.1 µM
TGI (HOP-62 NSCLC): 60.5 µM
TGI (SN12C renal): > 100 µM
TGI (MCF7 breast): 24.7 µM
TGI (MDA-MB-231 breast): 35.5 µM
TGI (HT29 colon): 28 µM
TGI (A498 renal): 8.76 µM
TGI (NCI-H226 lung): 40.1 µM
TGI (OVCAR-8 ovarian): 19.9 µM

COC(C)(C)[C@@H](O)[C@H]1C[C@H](C)[C@@]2(CC[C@]3(C)[C@@H]2CC[C@@H]2[C@@]4(C)CC[C@@H](OC(C)=O)C(C)(C)[C@@H]4C[C@@H](OC4OC(COC(C)=O)C(O)C(O)C4O)[C@]23C)O1 (stereo not given in full)
TGI (SW-620 colon): 20.2 µM
TGI (PC-3 prostate): 8.1 µM
TGI (HOP-62 NSCLC): 25 µM
TGI (SN12C renal): 19.4 µM
TGI (MCF7 breast): 8.92 µM
TGI (MDA-MB-231 breast): 24.9 µM
TGI (HT29 colon): 4.07 µM
TGI (A498 renal): 14.4 µM
TGI (NCI-H226 lung): 17.5 µM
TGI (OVCAR-8 ovarian): 18.7 µM

O=C(O)c1cc(-c2ccc3c(O)c(O)ccc3c2)ccc1O
TGI (SW-620 colon): 36.8 µM
TGI (PC-3 prostate): > 75 µM
TGI (HOP-62 NSCLC): > 75 µM
TGI (SN12C renal): 30.8 µM
TGI (MCF7 breast): 25.1 µM
TGI (MDA-MB-231 breast): 54.1 µM
TGI (HT29 colon): 42.5 µM
TGI (A498 renal): > 75 µM
TGI (NCI-H226 lung): > 75 µM
TGI (OVCAR-8 ovarian): > 75 µM

CC(=O)Oc1cc(C(F)(F)F)ccc1C(=O)OC1(C)OC(=O)c2ccc(C(F)(F)F)cc2O1 (stereo not given)
TGI (SW-620 colon): > 100 µM
TGI (PC-3 prostate): > 100 µM
TGI (HOP-62 NSCLC): > 100 µM
TGI (SN12C renal): > 100 µM
TGI (MCF7 breast): > 100 µM
TGI (MDA-MB-231 breast): > 100 µM
TGI (HT29 colon): > 100 µM
TGI (A498 renal): > 100 µM
TGI (NCI-H226 lung): > 100 µM
TGI (OVCAR-8 ovarian): > 100 µM

COC(=O)c1c2c(cc3c1CCC3)CCC2
TGI (SW-620 colon): > 100 µM
TGI (PC-3 prostate): > 100 µM
TGI (HOP-62 NSCLC): > 100 µM
TGI (SN12C renal): > 100 µM
TGI (MCF7 breast): > 100 µM
TGI (MDA-MB-231 breast): > 100 µM
TGI (HT29 colon): > 100 µM
TGI (A498 renal): 90.3 µM
TGI (NCI-H226 lung): > 100 µM
TGI (OVCAR-8 ovarian): > 100 µM

Cc1cc(-c2nc3ccccc3s2)ccc1NC(=O)[C@@H](N)CCCCN
TGI (SW-620 colon): 25.3 µM
TGI (PC-3 prostate): 30.1 µM
TGI (HOP-62 NSCLC): 25.9 µM
TGI (SN12C renal): 32.9 µM
TGI (MCF7 breast): 11.7 µM
TGI (MDA-MB-231 breast): 25.3 µM
TGI (HT29 colon): 16.9 µM
TGI (A498 renal): 19.2 µM
TGI (NCI-H226 lung): 17.8 µM
TGI (OVCAR-8 ovarian): 17.1 µM

NC(CC1=CS(=O)(=O)c2ccc(Cl)cc21)C(=O)O (stereo not given)
TGI (SW-620 colon): > 100 µM
TGI (PC-3 prostate): > 100 µM
TGI (HOP-62 NSCLC): > 100 µM
TGI (SN12C renal): > 100 µM
TGI (MCF7 breast): > 100 µM
TGI (MDA-MB-231 breast): > 100 µM
TGI (HT29 colon): > 100 µM
TGI (A498 renal): > 100 µM
TGI (NCI-H226 lung): > 100 µM
TGI (OVCAR-8 ovarian): > 100 µM

COc1nc2ncc([C@@H](OC(C)=O)[C@@H](COC(C)=O)OC(C)=O)nc2c(=O)[nH]1
TGI (SW-620 colon): > 100 µM
TGI (PC-3 prostate): > 100 µM
TGI (HOP-62 NSCLC): > 100 µM
TGI (SN12C renal): > 100 µM
TGI (MCF7 breast): > 100 µM
TGI (MDA-MB-231 breast): > 100 µM
TGI (HT29 colon): > 100 µM
TGI (A498 renal): > 100 µM
TGI (NCI-H226 lung): > 100 µM
TGI (OVCAR-8 ovarian): > 100 µM
